The values below come from ChEMBL document CHEMBL1671819, “Interactions of monoamine oxidases with the antiepileptic drug zonisamide: specificity of inhibition and structure of the human monoamine oxidase B complex” (J Med Chem, 2011).

In data set [1] the target is T1, Amine oxidase [flavin-containing] B (Rattus norvegicus, UniProt P19643).
T1 sequence (P19643 whole entry): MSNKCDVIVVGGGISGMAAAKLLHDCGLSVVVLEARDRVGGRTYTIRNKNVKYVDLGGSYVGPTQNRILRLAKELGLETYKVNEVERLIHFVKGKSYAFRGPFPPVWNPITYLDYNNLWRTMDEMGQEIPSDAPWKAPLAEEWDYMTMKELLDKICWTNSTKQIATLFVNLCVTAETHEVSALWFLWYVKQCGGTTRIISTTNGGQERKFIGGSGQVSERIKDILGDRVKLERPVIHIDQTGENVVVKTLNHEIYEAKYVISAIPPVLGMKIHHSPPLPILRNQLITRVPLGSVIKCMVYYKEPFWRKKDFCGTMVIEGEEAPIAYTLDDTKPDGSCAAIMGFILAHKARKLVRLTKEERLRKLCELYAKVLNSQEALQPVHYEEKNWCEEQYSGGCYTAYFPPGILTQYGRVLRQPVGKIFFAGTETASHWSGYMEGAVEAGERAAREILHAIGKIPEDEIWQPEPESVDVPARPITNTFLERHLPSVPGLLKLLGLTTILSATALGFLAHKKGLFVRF
Put plainly: Competitive inhibition of rat MAO B by spectrophotometry.

Data set [2] relates to Serum. Put plainly: Drug level in parkinson's disease patient serum at 25 mg/day. The class given is ADME, cell-free. The conditions noted are these: human, read-out: Drug uptake.
Data set [3] concerns the target T2, Amine oxidase [flavin-containing] (Danio rerio, UniProt Q6NSN2).
T2 sequence (Q6NSN2 whole entry): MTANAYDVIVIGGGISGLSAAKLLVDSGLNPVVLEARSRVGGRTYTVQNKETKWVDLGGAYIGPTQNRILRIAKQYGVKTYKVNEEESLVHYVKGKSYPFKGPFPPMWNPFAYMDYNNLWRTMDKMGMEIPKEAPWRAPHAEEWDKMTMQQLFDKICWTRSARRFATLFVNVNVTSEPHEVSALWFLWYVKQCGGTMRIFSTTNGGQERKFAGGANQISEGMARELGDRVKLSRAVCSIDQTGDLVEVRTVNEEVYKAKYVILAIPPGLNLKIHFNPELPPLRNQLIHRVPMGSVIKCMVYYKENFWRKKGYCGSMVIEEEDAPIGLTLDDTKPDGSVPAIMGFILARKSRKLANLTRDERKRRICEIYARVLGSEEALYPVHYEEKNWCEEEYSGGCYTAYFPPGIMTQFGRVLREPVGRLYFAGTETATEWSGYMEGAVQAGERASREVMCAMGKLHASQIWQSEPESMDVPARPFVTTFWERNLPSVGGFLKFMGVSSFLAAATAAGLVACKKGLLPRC
In words: Competitive inhibition of zebrafish MAO by spectrophotometry.

In data set [4] the target is T3, Amine oxidase [flavin-containing] A (Homo sapiens, UniProt P21397).
T3 sequence (P21397 whole entry): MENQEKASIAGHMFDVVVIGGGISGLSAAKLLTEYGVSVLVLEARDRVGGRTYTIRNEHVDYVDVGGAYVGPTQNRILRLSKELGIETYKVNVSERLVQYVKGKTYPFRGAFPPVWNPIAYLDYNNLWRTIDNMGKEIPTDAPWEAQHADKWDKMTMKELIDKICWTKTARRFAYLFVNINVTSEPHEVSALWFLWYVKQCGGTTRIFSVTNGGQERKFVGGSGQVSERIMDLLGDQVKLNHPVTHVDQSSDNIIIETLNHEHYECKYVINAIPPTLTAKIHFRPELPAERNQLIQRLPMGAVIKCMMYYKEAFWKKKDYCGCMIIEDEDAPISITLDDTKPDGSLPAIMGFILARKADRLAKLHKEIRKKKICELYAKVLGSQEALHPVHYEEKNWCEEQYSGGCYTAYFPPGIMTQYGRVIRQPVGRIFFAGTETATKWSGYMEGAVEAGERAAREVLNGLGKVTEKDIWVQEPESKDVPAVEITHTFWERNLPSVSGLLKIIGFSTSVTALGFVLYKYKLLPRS
In words: Competitive inhibition of human MAOA by spectrophotometry.

The target in data set [5] is T4, Amine oxidase [flavin-containing] B (Homo sapiens, UniProt P27338).
T4 sequence (P27338 whole entry): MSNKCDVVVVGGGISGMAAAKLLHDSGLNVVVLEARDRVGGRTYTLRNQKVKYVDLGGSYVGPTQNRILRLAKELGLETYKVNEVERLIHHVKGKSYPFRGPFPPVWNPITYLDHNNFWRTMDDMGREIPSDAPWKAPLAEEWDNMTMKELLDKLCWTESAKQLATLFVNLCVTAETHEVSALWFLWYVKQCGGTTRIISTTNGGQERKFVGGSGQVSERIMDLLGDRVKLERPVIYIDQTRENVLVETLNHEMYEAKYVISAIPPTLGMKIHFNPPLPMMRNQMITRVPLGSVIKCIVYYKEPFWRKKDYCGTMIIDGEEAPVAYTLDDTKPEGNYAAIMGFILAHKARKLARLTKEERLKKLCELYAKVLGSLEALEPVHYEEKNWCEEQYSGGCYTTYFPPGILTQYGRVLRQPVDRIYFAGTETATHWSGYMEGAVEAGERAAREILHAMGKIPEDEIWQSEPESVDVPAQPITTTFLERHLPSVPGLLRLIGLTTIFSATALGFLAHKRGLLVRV
Put plainly: Competitive inhibition of human MAO B by spectrophotometry.

Data set [6] concerns the target T5, Amine oxidase [flavin-containing] A (Rattus norvegicus, UniProt P21396).
T5 sequence (P21396 whole entry): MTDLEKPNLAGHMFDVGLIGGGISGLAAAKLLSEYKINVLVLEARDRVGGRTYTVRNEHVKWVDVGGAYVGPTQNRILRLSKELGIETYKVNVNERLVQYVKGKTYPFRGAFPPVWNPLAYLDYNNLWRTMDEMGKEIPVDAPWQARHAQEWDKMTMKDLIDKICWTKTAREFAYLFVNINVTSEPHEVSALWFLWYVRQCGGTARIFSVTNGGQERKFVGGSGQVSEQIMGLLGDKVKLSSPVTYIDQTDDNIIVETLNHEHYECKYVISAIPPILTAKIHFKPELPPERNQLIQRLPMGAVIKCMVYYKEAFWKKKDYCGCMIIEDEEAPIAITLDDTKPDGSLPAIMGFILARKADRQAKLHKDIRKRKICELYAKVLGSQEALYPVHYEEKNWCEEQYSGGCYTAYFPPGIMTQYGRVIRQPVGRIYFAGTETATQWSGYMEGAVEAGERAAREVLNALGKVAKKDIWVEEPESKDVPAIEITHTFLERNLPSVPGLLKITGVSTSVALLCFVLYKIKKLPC
In words: Competitive inhibition of rat MAOA by spectrophotometry.

With `NS(=O)(=O)Cc1noc2ccccc12` [ZONISAMIDE], the Ki (usually the dissociation constant of the complex between target and ligand, obtained from inhibition or displacement) was 2.9 µM in data set [1], 30.8 µM in data set [3] and 3.1 µM in data set [5]. Also, in data set [2], the concentration was 600 nM. The “inhibition (INH)” value in data set [4] and in data set [6] was “Not Active” each time.
